Results reported in patent US10028992B2, “Methods of treating muscular dystrophy” (BOARD OF REGENTS OF THE NEVADA SYSTEM OF HIGHER EDUCATION …, priority 2012, dated 2018).

System: α7 integrin promoter
Assay: muscle cell-based assay: α7βgal+/− myoblasts/myotubes, LacZ reporter, β-galactosidase cleavage of FDG
Design: species or system mouse; Results in α7+/− β-galactosidase assay: scale not given here
Details: Myoblasts
Outline: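 Primary α7βgal+/− mouse myoblasts (LacZ knocked into α7 integrin exon 1, promoter retained), differentiated; promoter activity read as β-galactosidase conversion of non-fluorescent FDG to fluorescein. Hits followed by dose-response, western analysis and myostatin counterscreen.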

Compound	Results in α7+/− β-galactosidase assay (0.5 uM)	Results in α7+/− β-galactosidase assay (1 uM)	Results in α7+/− β-galactosidase assay (5 uM)	Results in α7+/− β-galactosidase assay (10 uM)	Results in α7+/− β-galactosidase assay (20 uM)	Results in α7+/− β-galactosidase assay (40 uM)
CC(C)(C)NC(=O)NC(=O)CN1CCN(Cc2ccccc2)CC1 [drawing 632]	0.1233	−0.06967	−0.04648	0.1725	−0.02695	−0.05859
COc1cc(C=O)ccc1OCC(=O)Nc1ccc2c(c1)OCO2 [drawing 633]	0.04105	−0.1736	0.4398	0.09536	−0.06607	−0.1156
Cc1ccccc1NC(=O)c1ccc2c(O)c(Sc3ccccc3)c(=O)[nH]c2c1 [drawing 634]	−0.01711	−0.1427	0.008423	−0.03481	−0.0939	−0.1611
Oc1nc(SCc2ccc(Cl)cc2)nc2ccsc12 [drawing 635]	0.07667	0.02077	−0.02435	−0.03652	−0.1552	−0.139
CCn1c(=O)c2cc(C(=O)N(C)c3cc(C)ccc3OC)sc2c2ccccc21 [drawing 636]	0.06384	−0.07654	−0.2273	−0.2656	−0.396	−0.3923
CCOC(=O)C1=C(NC(=O)c2ccc(OC)c(S(=O)(=O)N3CCCCC3C)c2)Nc2ccccc2N=C1CC (stereo not drawn) [drawing 637]	0.1194	0.007377	−0.06112	−0.01618	−0.4913	−0.6556
O=C(NCc1ccccc1)C(c1c(F)cccc1Cl)N(C(=O)c1csnn1)C1CC1 (stereo not drawn) [drawing 638]	0.05089	−0.04686	−0.06939	−0.1188	0.4333	−0.4316
Cc1[nH]c2ccc(F)cc2c1CCN(Cc1ccco1)/C(S)=N/C(C)(C)C [drawing 639]	0.1665	0.002443	−0.08261	−0.1049	−0.2055	−0.2801
c1ccc(-c2cc(-c3nc4ccccc4[nH]3)c3ccccc3n2)cc1 [drawing 640]	0.2113	0.0679	−0.00848	−0.0409	0.08704	−0.1752
CCC(C)n1nc(O)cc1N (stereo not drawn) [drawing 641]	0.2618	0.0875	−0.07378	−0.09102	0.1389	0.06802
Cc1ccc(C(=O)N2CCN(S(=O)(=O)N3CCOCC3)CC2)cc1 [drawing 642]	0.1086	−0.02563	0.3985	−0.06877	−0.07784	−0.1672
Cc1cccc(NC(=O)CN(C)C(=O)c2ccc(-c3ccc(Cl)cc3)o2)c1 [drawing 643]	−0.0624	−0.00739	−0.04166	−0.109	0.6807	−0.2589
Cc1ccccc1S(=O)(=O)N1C[C@H]2CON(C)[C@H]2C[C@H]1c1cccc(-c2ccccc2)c1 [drawing 644]	0.06241	0.06141	0.04452	0.08987	−0.2419	−0.2934
N#C/C(=C/c1ccc(N2CCOCC2)o1)C(=O)Nc1ccccc1 [drawing 645]	0.06835	0.1707	0.1316	0.05082	0.07006	0.03748
CCOc1ccccc1Nc1cc2n(c(=O)n1)CCc1cc(OC)c(OC)cc1-2 [drawing 646]	−0.02172	0.002645	−0.2359	−0.3859	−0.7975	−0.7954
CCOc1ccccc1NC(=O)COC(=O)CNS(=O)(=O)c1ccc(C)cc1 [drawing 648]	0.03233	0.05083	−0.02764	−0.06749	−0.1666	−0.1295
Fc1ccc(-c2ccnc3nc(N4CCN(c5ccccc5)CC4)nn23)cc1 [drawing 649]	0.1594	0.2225	0.1641	0.1229	0.02594	0.02675
CCOc1cc2c3c(c1)C(C)=CC(C)(C)N3C(=O)C2=O [drawing 650]	0.1703	0.1592	−0.1933	−0.4363	−0.8277	−0.8257
COc1ccc2c(c1)/C(=C\c1cccc(/C=C3/C(=O)Nc4ccc(OC)cc43)n1)C(=O)N2 [drawing 651]	−0.2196	−0.4455	−0.825	−0.8112	−0.9441	−0.9511
C/C(=N\NC(=O)c1cc(C)oc1C)c1ccc2ccccc2c1 [drawing 652]	−0.1564	−0.09115	0.2722	−0.1575	−0.3649	−0.6275
O=C1Nc2ccccc2/C1=C\c1cccn1-c1ccc(OC(F)(F)F)cc1 [drawing 653]	−0.1201	0.155	0.2721	0.07821	0.05267	−0.1116
NS(=O)(=O)c1ccc(NC(=O)CN2CCc3ccccc32)cc1 [drawing 654]	−0.2007	−0.06684	0.3068	0.002758	−0.1257	−0.1195
CC(=O)C1=C(C)Nc2ncnn2C1c1ccc(C)cc1 (stereo not drawn) [drawing 655]	−0.08387	0.003197	0.2805	−0.01305	−0.1533	−0.247
COc1ccc(OC)c(S(=O)(=O)Nc2c(NC3CCCCC3)c3ccccc3oc2=O)c1 [drawing 656]	−0.2127	−0.1212	0.2955	−0.031	−0.2083	−0.2716
CC(=O)Nc1ccc(NC(=O)C/C(C)=N/NC(=O)COc2cc(C)c(Br)cc2Br)cc1 [drawing 657]	−0.2303	−0.07096	0.03872	−0.07468	−0.3089	−0.4449
Cc1cccc(Cn2cnc3c(nnn3Cc3ccc(Cl)cc3)c2=O)c1 [drawing 658]	−0.04558	0.03537	0.1703	−0.06567	−0.2167	−0.3491
CCOc1ccc(Br)cc1S(=O)(=O)Nc1ccc(C(=O)Nc2ccccc2OC)cc1 [drawing 659]	−0.08436	0.06885	0.1299	−0.03674	−0.08958	−0.05546
O=C(NCc1ccccc1)c1csc(-c2cccnc2)n1 [drawing 660]	−0.1908	−0.04939	0.2247	0.1255	0.2423	0.1166
